Experimental findings from paper PMC4686814 (Nature communications, 2015) are described below.

Broadly, the Kd is the concentration at which binding is half-saturated. Read a high Kd as lower affinity. A word on the stoichiometry N: it is the number of molecules, sites or subunits per partner or assembly.

Data set [1] addresses T1, MsVps4ΔMIT (Metallosphaera sedula, UniProt A4YHC5).
T1 construct: gene Msed_1672
Description: ITC, two-site model. The data set is classed as binding. For orientation: Isothermal titration calorimetry measures the heat released or taken up as one component is titrated into another.

Data set [2] concerns the target T1, MsVps4ΔMIT. Description: ITC. The data set is classed as binding.
Data set [3] concerns the molecule itself. Description: SEC; Superose 6; hVPS4B E235Q and mutants of it at 100 µM with 1 mM ATP and 5 mM MgCl2. (SEC sorts molecules by how far they enter the pores of the column.)

T1 sequence (A4YHC5 entry or part of it, stated change not applied): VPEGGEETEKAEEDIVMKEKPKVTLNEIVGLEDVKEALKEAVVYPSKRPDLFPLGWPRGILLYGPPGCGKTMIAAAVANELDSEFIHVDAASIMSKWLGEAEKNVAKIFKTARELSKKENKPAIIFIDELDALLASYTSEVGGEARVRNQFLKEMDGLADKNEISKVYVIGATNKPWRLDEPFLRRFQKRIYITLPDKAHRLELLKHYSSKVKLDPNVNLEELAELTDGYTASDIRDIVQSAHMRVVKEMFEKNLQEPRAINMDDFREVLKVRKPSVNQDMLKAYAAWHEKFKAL

`Nc1ncnc2c1ncn2[C@@H]1O[C@H](COP(=O)(O)OP(=O)(O)O)[C@@H](O)[C@H]1O` [ADP] gave a Kd on MsVps4ΔMIT [1] of 0.4 µM.

At MsVps4ΔMIT [2], `Nc1ncnc2c1ncn2[C@@H]1O[C@H](COP(=O)(O)OP(=O)(O)OP(=O)(O)O)[C@@H](O)[C@H]1O` [ATP] registered a Kd of 3.3 µM.

B1: hVPS4B E235Q Ile124Glu (enzyme, human, UniProt O75351 1-444, looked up)
chain: MSSTSPNLQKAIDLASKAAQEDKAGNYEEALQLYQHAVQYFLHVVKYEAQGDKAKQSIRAKCTEYLDRAEKLKEYLKNKEKKAQKPVKEGQPSPADEKGNDSDGEGESDDPEKKKLQNQLQGAEVIERPNVKWSDVAGLEGAKEALKEAVILPIKFPHLFTGKRTPWRGILLFGPPGTGKSYLAKAVATEANNSTFFSISSSDLVSKWLGESEKLVKNLFQLARENKPSIIFIDQIDSLCGSRSENESEAARRIKTEFLVQMQGVGVDNDGILVLGATNIPWVLDSAIRRRFEKRIYIPLPEPHARAAMFKLHLGTTQNSLTEADFRELGRKTDGYSGADISIIVRDALMQPVRKVQSATHFKKVRGPSRADPNHLVDDLLTPCSPGDPGAIEMTWMDVPGDKLLEPVVSMSDMLRSLSNTKPTVNEHDLLKLKKFTEDFGQEG
Regarding B1, the “stoichiometry N” value in data set [3] was 6.
